Assay results taken from patent publication US20250281424A1 (New York Blood Center, Inc, priority 2020, published 2025).

Biological target: T1, human PF4 (Homo sapiens, UniProt P02776)
T1 construct: PF4 is a 70 amino acid, lysine-rich 7.8 kDa platelet-specific protein; made in house; host or cells: Escherichia coli BL21DE3 pLysS (pT7-7) and/or Drosophila S2 cells
T1 sequence (P02776 32-101): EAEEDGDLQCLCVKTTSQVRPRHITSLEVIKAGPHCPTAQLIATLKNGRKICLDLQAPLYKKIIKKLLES
Experiment: Inhibition of PF4 tetramer formation (BS3 cross-linking, SDS-PAGE)
Assay type: biochemical
Details: for inhibition at 5 µM: 5 μM inhibitor; for inhibition at 5 µM / inhibition at 10 µM / inhibition at 1 µM / inhibition at 3 µM: read-out: % inhibition of PF4 tetramer formation at single concentration of inhibitor; for inhibition at 10 µM: 10 μM inhibitor (column A); for IC50: read-out: IC50 of PF4 tetramer formation inhibition
Procedure: Compounds of Examples 1-38, 65-301, 303, 305, 307, 309, 311, 313, 314, 316, and 318-404 were tested using SDS PAGE analysis of BS3 crosslinked PF4 for their ability to prevent PF4 tetramer formation. […] See, Suvarna et al., Throm. Res, 122:211-220 (2008), which is hereby incorporated by reference, at least for a detailed description of this technique.
cDNA encoding human PF4 was cloned into the plasmid μMT/BiPN5-His A (Invitrogen Corp., Carlsbad CA) for expression in the Drosophila Expression System (Invitrogen, Carlsbad, CA). Cloning was performed using Bg1 II and Age I cloning sites. A hexanucleotide encoding Bg1 II site was then eliminated by site-directed mutagenesis so that the expressed protein contained full-length wild type (wt) PF4 or PF4^K50E with an identical sequence as their counterparts expressed in E. coli. See, method described in Sachais et al (Sachais, B. S. et al. (2012). Blood 119(25): 5955-5961). PF4 expression was induced by adding copper sulfate (0.5 mM). The induced S2 cells were incubated in serumfree Insect-Xpress™ media (Lonza, Walkersville, MD) for 3-5 days; supernatants were collected, sodium azide (0.02% final concentration) and EDTA (2.5 mM final concentration) were added, and the media were filtered through an Express® PLUS 0.22 μm filter (Millipore Corp., Billerica, MA).
Wild-type (WT) human PF4 in the pT7-7 vector (Novagen, Madison, WI) was expressed in the Escherichia coli strain BL21DE30 pLysS (Stratagene, La Jolla, CA), and purified and characterized as described by Rauova et al. (Rauova, L. et al. (2006). Blood 107(6): 2346-2353) and Park et al., (Blood, 75:1290-1295 (1990)), which are hereby incorporated by reference. Briefly, recombinant protein was isolated from the supernatant of the bacterial lysate by affinity chromatography using a HiTrap high-performance (HP) affinity column. WT PF4 was purified from the media on a heparin HiTrap® column on an ÄTKAPrime™ system (GE Healthcare) at 4° C. in Tris (10 mM), EDTA (1 mM), and pH 8 buffer. Media was loaded in buffer containing NaCl (0.5 M) and PF4 was eluted at 1.8 M NaCl using a linear gradient. Fractions containing purified PF4 as detected by silver staining of 12% NuPAGE Bis-Tris gels (Invitrogen) were pooled, concentrated and buffer exchanged into 50 mM HEPES, 0.5 M NaCl, pH—7.2 using an Amicon® Ultra centrifugal filter (3K NMWL, Millipore Corp). Protein was quantified using a BCA assay.
Compounds of Examples 1-38, 65-196, and 209-228 were then tested for their ability to inhibit PF4 tetramer formation using a cross-linking assay as described in Rauova cited above. Specifically, hPF4 (10 μg/ml) in phosphate-buffered saline (PBS) was incubated at 37° C. for 15 min in the absence of the antagonistic compounds (control sample) and presence of compounds. Cross-linking and SDS-PAGE analysis were then performed as described in “Analysis of PF4 multimerization” of Rauova. The relative amounts of PF4 in each of the monomer, dimer, trimer and tetramer form were calculated by analyzing the samples on a 12% SDS-polyacrylamide gel under reducing conditions. Bands were quantified using the Kodak ID Image Analysis system (Kodak, Rochester, NY). The SigmaMarker™ reagent served as the molecular weight standard. Data was compiled and bar graphed as % PF4 for the tetramer, trimer, dimer, and monomer as a function of concentration for the test and control samples.
This experiment was performed in a manner similar to experiment 1, but PF4 (10 μg/ml) in PBS was independently incubated with compounds of Examples 1-38, 65-196, and 209-228 for 60 min at room temperature, followed by the addition of cross-linking reagent bis(sulfosuccinimidyl)suberate (0.2 mM) for 30 min at room temperature. The reaction was stopped by adding NuPAGE® lithium dodecyl sulfate (LDS) sample buffer, and denatured by heating to 70° C. for 10 min according to the manufacturer's instructions. […]

**Q.** Which results are given for O=C(Nc1ccc(I)cc1)C1C(=O)c2ccc(S(=O)(=O)c3ccc4c(c3)C(=O)C(C(=O)Nc3ccc(I)cc3)C4=O)cc2C1=O (stereo not shown) [Example 95, N-(4-iodophenyl)-5-({2-[(4-iodophenyl)carbamoyl]-1,3-dioxo-2,3-dihydro-1H-inden-5-yl}sulfonyl)-1,3-dioxo-2,3-dihydro-1H-indene-2-carboxamide]?
**A.** inhibition at 5 µM: 33%; inhibition at 10 µM: 69%

**Q.** Which inhibition at 1 µM (1 μM inhibitor) does the source give for CCNC(=O)C1C(=O)c2ccc(C(=O)c3ccc4c(c3)C(=O)C(C(=O)NCC)C4=O)cc2C1=O (stereo not shown) [Example 335, N-ethyl-5-[2-(ethylcarbamoyl)-1,3-dioxo-2,3-dihydro-1H-indene-5-carbonyl]-1,3-dioxo-2,3-dihydro-1H-indene-2-carboxamide] here?
**A.** The inhibition at 1 µM was 23%.

**Q.** And the inhibition at 3 µM (3 μM inhibitor (column A))?
**A.** Its inhibition at 3 µM is 39%.

**Q.** CC(C)(C)OC(=O)N1CSC[C@H]1C(=O)C1C(=O)c2ccc(-c3ccc4c(c3)C(=O)C(C(=O)[C@@H]3CSCN3C(=O)OC(C)(C)C)C4=O)cc2C1=O (stereo partly drawn) [Example 210, tert-butyl (4R)-4-{2′-[(4R)-3-[(tert-butoxy)carbonyl]-1,3-thiazolidine-4-carbonyl]-1,1′,3,3′-tetraoxo-1H,1′H,2H,2′H,3H,3′H-[5,5′-biindene]-2-carbonyl}-1,3-thiazolidine-3-carboxylate] was tested. Which inhibition at 5 µM did it give?
**A.** Its inhibition at 5 µM is 62%.

**Q.** And the inhibition at 10 µM?
**A.** Its inhibition at 10 µM is 94%.

**Q.** What about the IC50 of the same molecule?
**A.** Its IC50 is ~5 µM.

**Q.** What does the source list for CC(=O)NCC(=O)C1C(=O)c2ccc(Oc3ccc4c(c3)C(=O)C(C(=O)CNC(C)=O)C4=O)cc2C1=O (stereo not shown) [Example 246, N-[2-(5-{[2-(2-acetamidoacetyl)-1,3-dioxo-2,3-dihydro-1H-inden-5-yl]oxy}-1,3-dioxo-2,3-dihydro-1H-inden-2-yl)-2-oxoethyl]acetamide]?
**A.** % inhibition of PF4 tetramer formation at single concentration of inhibitor (1 μM inhibitor, 1 µM): 12%; % inhibition of PF4 tetramer formation at single concentration of inhibitor (3 μM inhibitor (column A), 3 µM): 30%; IC50: 3 µM

**Q.** With C[C@H](NC(=O)C1C(=O)c2ccc(S(=O)(=O)c3ccc4c(c3)C(=O)C(C(=O)N[C@@H](C)C(=O)O)C4=O)cc2C1=O)C(=O)O (stereo partly drawn) [Example 318, (2S)-2-({5-[(2-{[(1S)-1-carboxyethyl]carbamoyl}-1,3-dioxo-2,3-dihydro-1H-inden-5-yl)sulfonyl]-1,3-dioxo-2,3-dihydro-1H-inden-2-yl}formamido) propanoic acid] as the molecule, how does the inhibition at 1 µM (1 μM inhibitor) read?
**A.** The inhibition at 1 µM was 15%.

**Q.** What about the inhibition at 3 µM (3 μM inhibitor (column A)) of the same molecule?
**A.** The inhibition at 3 µM was 36%.

**Q.** With COCCNC(=O)C1C(=O)c2ccc(C(=O)c3ccc4c(c3)C(=O)C(C(=O)NCCOC)C4=O)cc2C1=O (stereo not shown) [Example 74, 5,5′-carbonylbis(n-(2-methoxyethyl)-1,3-dioxo-2,3-dihydro-1h-indene-2-carboxamide)] as the molecule, how does the inhibition at 5 µM read?
**A.** Its inhibition at 5 µM is 19%.

**Q.** What about the inhibition at 10 µM of the same molecule?
**A.** The inhibition at 10 µM was 46%.

**Q.** Which inhibition at 5 µM does the source give for CC(C)(C)OC(=O)N1C[C@@H]2[C@H](C1)[C@H]2C(=O)C1C(=O)c2ccc(-c3ccc4c(c3)C(=O)C(C(=O)[C@H]3[C@@H]5CN(C(=O)OC(C)(C)C)C[C@@H]53)C4=O)cc2C1=O (stereo partly drawn) [Example 216, tert-butyl (1R,5S,6R)-6-{2′-[(1R,5S,6R)-3-[(tert-butoxy)carbonyl]-3-azabicyclo[3.1.0]hexane-6-carbonyl]-1,1′,3,3′-tetraoxo-1H,1′H,2H,2′H,3H,3′H-[5,5′-biindene]-2-carbonyl}-3-azabicyclo[3.1.0]hexane-3-carboxylate] here?
**A.** The inhibition at 5 µM was 82%.

**Q.** And the inhibition at 10 µM?
**A.** Its inhibition at 10 µM is 91%.

**Q.** And the IC50?
**A.** Its IC50 is 2.5 µM.

**Q.** CC(C)(C)OC(=O)N1CCCC[C@@H]1C(=O)C1C(=O)c2ccc(C(=O)c3ccc4c(c3)C(=O)C(C(=O)[C@H]3CCCCN3C(=O)OC(C)(C)C)C4=O)cc2C1=O (stereo partly drawn) [Example 275, tert-butyl (2R)-2-(5-{2-[(2R)-1-[(tert-butoxy)carbonyl]piperidine-2-carbonyl]-1,3-dioxo-2,3-dihydro-1H-indene-5-carbonyl}-1,3-dioxo-2,3-dihydro-1H-indene-2-carbonyl)piperidine-1-carboxylate] was tested. Which inhibition at 1 µM (1 μM inhibitor) did it give?
**A.** The inhibition at 1 µM was 5%.

**Q.** And the inhibition at 3 µM (3 μM inhibitor (column A))?
**A.** Its inhibition at 3 µM is 31%.

**Q.** And the IC50?
**A.** Its IC50 is 3 µM.

**Q.** How did the inhibition at 1 µM (1 μM inhibitor) turn out when CC(C)(C)OC(=O)NCC(=O)C1C(=O)c2ccc(Oc3ccc4c(c3)C(=O)C(C(=O)CNC(=O)OC(C)(C)C)C4=O)cc2C1=O (stereo not shown) [Example 272, tert-butyl N-[2-(5-{[2-(2-{[(tert-butoxy)carbonyl]amino}acetyl)-1,3-dioxo-2,3-dihydro-1H-inden-5-yl]oxy}-1,3-dioxo-2,3-dihydro-1H-inden-2-yl)-2-oxoethyl]carbamate] was run?
**A.** Its inhibition at 1 µM is 26%.

**Q.** What about the inhibition at 3 µM (3 μM inhibitor (column A)) of the same molecule?
**A.** Its inhibition at 3 µM is 56%.

**Q.** How did the IC50 turn out when CC(C)(C)OC(=O)N1CC=C[C@H]1C(=O)C1C(=O)c2ccc(C(=O)c3ccc4c(c3)C(=O)C(C(=O)[C@@H]3C=CCN3C(=O)OC(C)(C)C)C4=O)cc2C1=O (stereo partly drawn) [Example 122, tert-butyl (2S)-2-(5-{2-[(2S)-1-[(tert-butoxy)carbonyl]-2,5-dihydro-1H-pyrrole-2-carbonyl]-1,3-dioxo-2,3-dihydro-1H-indene-5-carbonyl}-1,3-dioxo-2,3-dihydro-1H-indene-2-carbonyl)-2,5-dihydro-1H-pyrrole-1-carboxylate] was run?
**A.** The IC50 was ~3 µM.

**Q.** Which results are given for CC(C)(C)OC(=O)NCC(=O)C1C(=O)c2ccc(S(=O)(=O)c3ccc4c(c3)C(=O)C(C(=O)CNC(=O)OC(C)(C)C)C4=O)cc2C1=O (stereo not shown) [Example 174, tert-butyl N-[2-(5-{[2-(2-{[(tert-butoxy)carbonyl]amino}acetyl)-1,3-dioxo-2,3-dihydro-1H-inden-5-yl]sulfonyl}-1,3-dioxo-2,3-dihydro-1H-inden-2-yl)-2-oxoethyl]carbamate]?
**A.** inhibition at 5 µM: 84%; inhibition at 10 µM: 94%; IC50: 11 µM

**Q.** Which inhibition at 1 µM (1 μM inhibitor) does the source give for CC[C@H](C)[C@H](NC(=O)C1C(=O)c2ccc(C(=O)c3ccc4c(c3)C(=O)C(C(=O)N[C@H](C(=O)OC)[C@@H](C)CC)C4=O)cc2C1=O)C(=O)OC (stereo partly drawn) [Example 332, methyl (2S,3S)-2-{[5-(2-{[(2S,3S)-1-methoxy-3-methyl-1-oxopentan-2-yl]carbamoyl}-1,3-dioxo-2,3-dihydro-1H-indene-5-carbonyl)-1,3-dioxo-2,3-dihydro-1H-inden-2-yl]formamido}-3-methylpentanoate] here?
**A.** The inhibition at 1 µM was 5%.

**Q.** And the inhibition at 3 µM (3 μM inhibitor (column A))?
**A.** The inhibition at 3 µM was 13%.

**Q.** Which inhibition at 1 µM (1 μM inhibitor) does the source give for O=C1c2ccc(Oc3ccc4c(c3)C(=O)C(C(=O)C3CCCC3)C4=O)cc2C(=O)C1C(=O)C1CCCC1 (stereo not shown) [Example 251, 2-cyclopentanecarbonyl-5-[(2-cyclopentanecarbonyl-1,3-dioxo-2,3-dihydro-1H-inden-5-yl)oxy]-2,3-dihydro-1H-indene-1,3-dione] here?
**A.** Its inhibition at 1 µM is 32%.

**Q.** What about the inhibition at 3 µM (3 μM inhibitor (column A)) of the same molecule?
**A.** The inhibition at 3 µM was 45%.

**Q.** What about the IC50 of the same molecule?
**A.** Its IC50 is 3 µM.

**Q.** Which results are given for O=C(c1ccc2c(c1)C(=O)C(C(=O)CC1CC1)C2=O)c1ccc2c(c1)C(=O)C(C(=O)CC1CC1)C2=O (stereo not shown) [Example 140, 2-(2-cyclopropylacetyl)-5-[2-(2-cyclopropylacetyl)-1,3-dioxo-2,3-dihydro-1H-indene-5-carbonyl]-2,3-dihydro-1H-indene-1,3-dione]?
**A.** inhibition at 5 µM: 92%; inhibition at 10 µM: 93%; IC50: 4.7 µM
